According to patent US8188301B2, “Disubstituted phenylpyrrolidines as modulators of cortical catecholaminergic neurotransmission” (NSAB, Filial af NeuroSearch Sweden AB, Sverige, priority 2007, dated 2012):
Where a name gives a salt, the structure may show the parent alone. Read-outs that look alike come from different tables or passages of the source.

What was measured:
[1] = system: DOPAC levels (3,4-dihydroxyphenylacetic acid) in the rat striatum; assay: Tissue content of DOPAC in rat striatum after systemic administration of test compound (in vivo neurochemistry); conditions: for change in vivo at 100 µmol/kg: sc, 1 h
Description: The measurement of the tissue content of DOPAC is well established in the field of research since the 1960's. In short, male Sprague-Dawely rats are administered the test compound 60 minutes prior to decapitation. The brain is rapidly taken out and dissected. The striatum is rapidly frozen and subsequently quantitatively analysed with respect to its content of DOPAC by means of HPLC and electrochemical detection. The number of animals used for each test compound/vehicle is 4/group.
Male Sprague-Dawley rats weighing 220-320 g are used throughout the experiments. Sixty (60) minutes following administration of the test substance, the rats are decapitated. Directly after decapitation the brain is removed from the skull and put on a glass petri bowl filled with ice. The limbic system (containing the nucleus accumbens—both the core and shell, most parts of the olfactory tubercle and ventral pallidum) is dissected using two thin, angled tweezers and put directly on foil on dry ice (carbon dioxide −78° C.). The striatum and cortex are then dissected and also put on dry ice. The time from decapitation until the last tissue is dissected varies from four to six minutes. The tissue is weighed using a Sartorius BP3105 connected to a computer and packed in labelled tin foil, then stored in an −80° C. freezer. Great care is taken in order to keep the tissue frozen until the time of neurochemical analysis. Each brain part is subsequently analyzed with respect to its content of monoamines and their metabolites.
The monoamine transmitter substances (NE (norepinephrine), DA (dopamine), 5-HT (serotonin)) as well as their amine (NM (normethanephrine), 3-MT (3-methoxy-tyramine)) and acid (DOPAC (3,4-dihydroxyphenylacetic acid), 5-HIAA (5-hydroxyindoleacetic acid), HVA (homovanillic acid)) metabolites are quantified in brain tissue homogenates by HPLC separations and electrochemical detection.
The analytical method is based on two chromatographic separations dedicated for amines or acids. Two chromatographic systems share a common auto injector with a 10-port valve and two sample loops for simultaneous injection on the two systems. Both systems are equipped with a reverse phase column (Luna C18(2), dp 3 μm, 50*2 mm i.d., Phenomenex) and electrochemical detection is accomplished at two potentials on glassy carbon electrodes (MF-1000, Bioanalytical Systems, Inc.). The column effluent is passed via a T-connection to the detection cell or to a waste outlet. This is accomplished by two solenoid valves, which block either the waste or detector outlet. By preventing the chromatographic front from reaching the detector, better detection conditions are achieved. The aqueous mobile phase (0.4 mL/min) for the acid system contains citric acid 14 mM, sodium citrate 10 mM, MeOH 15% (v/v) and EDTA 0.1 mM. Detection potentials relative to Ag/AgCl reference are 0.45 and 0.60V. The aqueous ion pairing mobile phase (0.5 mL/min) for the amine system contains citric acid 5 mM, sodium citrate 10 mM, MeOH 9% (v/v), MeCN 10.5% (v/v), decane sulfonic acid 0.45 mM, and EDTA 0.1 mM. Detection potentials relative to Ag/AgCl reference are 0.45 and 0.65V.

[2] = system: extracellular levels of dopamine, norepinephrine and serotonin in p.f. cortex and striatum; assay: In vivo microdialysis in awake and freely moving rats; set-up: species or system rat; conditions: 10 mg/kg s.c., FIG. 21
[3] = system: DOPAC levels (3,4-dihydroxyphenylacetic acid) in the rat striatum; conditions: 100 μmol/kg s.c., %-increase from control value, data taken from Table 2 in Ref 1 (J. Med. Chem. 1994, 37, 2735); cited from earlier work
[4] = rat striatum, 100 μmol/kg s.c., %-increase from control value, 60 minutes after administration
[5] = Rattus norvegicus, read-out: DOPAC %-increase, rat striatum, 100 μmol/kg s.c., %-increase from control value, 60 minutes after administration

| Structure (SMILES) | DOPAC %-increase [1, 4] | change in vivo at 100 µmol/kg [1, 5] | further results |
| --- | --- | --- | --- |
| CCN1CCC(O)(c2cccc(F)c2F)C1 (single isomer, unassigned; (+)) [Example 36, (+)-3-(2,3-DIFLUOROPHENYL)-1-ETHYLPYRROLIDIN-3-OL] | −15% | – | – |
| CCN1CCC(O)(c2ccc(F)c(F)c2)C1 (stereo not drawn) [Example 12, 3-(3,4-DIFLUOROPHENYL)-1-ETHYLPYRROLIDIN-3-OL] | – | -19% | – |
| CCN1CCC(O)(c2cccc(F)c2F)C1 (stereo not drawn) [Example 4, 3-(2,3-DIFLUOROPHENYL)-1-ETHYLPYRROLIDIN-3-OL] | −10% | – | – |
| CCCN1CCC(O)(c2ccc(F)c(F)c2)C1 (stereo not drawn) [Example 7, 3-(3,4-DIFLUOROPHENYL)-1-PROPYLPYRROLIDIN-3-OL] | – | 0% | – |
| CCN1CCC(O)(c2cc(Cl)cc(Cl)c2)C1 (stereo not drawn) [Example 6, 3-(3,5-DICHLOROPHENYL)-1-ETHYLPYRROLIDIN-3-OL] | – | -10% | – |
| CCN1CCC(O)(c2cc(F)cc(F)c2)C1 (single isomer, unassigned; (+)) [Example 2, (+)-3-(3,5-DIFLUOROPHENYL)-1-ETHYLPYRROLIDIN-3-OL] | −16% | – | – |
| CCN1CCC(O)(c2ccc(Cl)c(Cl)c2)C1 (stereo not drawn) [Example 10, 3-(3,4-DICHLOROPHENYL)-1-ETHYLPYRROLIDIN-3-OL] | – | -26% | – |
| CN1CCC(F)(c2cc(F)cc(F)c2)C1 (stereo not drawn) [Example 11, 3-(3,5-DIFLUOROPHENYL)-3-FLUORO-1-METHYLPYRROLIDINE] | – | – | change in vivo at 100 µmol/kg ([1]; rat striatum, 100 μmol/kg s.c., %-increase from control value, 60 minutes after administration, read-out: DOPAC %-increase): -4% |
| CCCN1CCC(O)(c2cc(F)cc(F)c2)C1 (stereo not drawn) [Example 9, 3-(3,5-DIFLUOROPHENYL)-1-PROPYLPYRROLIDIN-3-OL] | – | -5% | – |
| CCN1CCC(O)(c2cc(F)cc(F)c2)C1 (stereo not drawn) [Example 8, 3-(3,5-DIFLUOROPHENYL)-1-ETHYLPYRROLIDIN-3-OL] | −24% | – | – |
| CN1CCN2c3ncccc3Cc3ccccc3C2C1 (stereo not drawn) [mirtazapine] | – | – | cortical NE levels [2]: marked increases in cortical NE levels; extracellular norepinephrine and dopamine in the cortex [2]: increase predominantly extracellullar norepinephrine and dopamine in the cortex |
| CCCN1CCC[C@@H](c2cccc(S(C)(=O)=O)c2)C1 [Example 16 of ref. 1] | – | – | DOPAC %-increase [3]: +150^2% |
| CCN1CCC(O)(c2ccc(F)c(Cl)c2)C1 (stereo not drawn) [Example 3, 3-(3-CHLORO-4-FLUOROPHENYL)-1-ETHYLPYRROLIDIN-3-OL] | – | -28% | – |
| CCN1CCC(O)(c2cccc(F)c2F)C1 (single isomer, unassigned; (-)) [Example 32, (−)-3-(2,3-DIFLUOROPHENYL)-1-ETHYLPYRROLIDIN-3-OL] | +8% | – | – |
| CCN1CCC(O)(c2cc(F)cc(Cl)c2)C1 (stereo not drawn) [Example 5, 3-(3-CHLORO-5-FLUOROPHENYL)-1-ETHYLPYRROLIDIN-3-OL] | – | -26% | – |
| CCN1CCC(O)(c2cc(F)cc(F)c2)C1 (single isomer, unassigned; (-)) [Example 1, (−)-3-(3,5-DIFLUOROPHENYL)-1-ETHYLPYRROLIDIN-3-OL] | 0% | – | – |
| CN1CCC(O)(c2cccc(F)c2F)C1 (stereo not drawn) (as salt: oxalic acid salt) [Example 40] | – | – | melting point: 134.3 °C |
